Laboratory results reported in publication PMC7006816, “Human β-Defensin 2 Mediated Immune Modulation as Treatment for Experimental Colitis” (Frontiers in Immunology, 2020).
Where no end group is shown, it is not given here.

Tests used:
[1] = tested on: SCID mice with CD4+/CD25− T cell transfer colitis; experiment: T cell transfer colitis model; format: in vivo, mouse
Protocol: This study was performed by the Department of Biomedical Science at the University of Catania according to directive 86/609 EEC and approved by Novozymes science ethics committee. 8 weeks old female BALB/c and C.B-17 female SCID mice were purchased from Harlan (Italy). Colitis was induced in severe combined immunodeficiency (SCID) mice by transplantation of CD4^+/CD25^− T cells from the BALB/c mice. Briefly, lymphomonocytes isolated from spleen or lymph nodes from BALB/c mice were subjected to negative selection of CD4^+ T cells. Afterwards, CD4^+/CD25^+ cells were positively isolated by binding to the beads from the CD4^+ T cell suspensions and the CD4^+/CD25^− were collected from supernatant. […] CD4^+/CD25^− cells were intraperitoneally injected to SCID mice at a concentration of 500,000 cells in a final volume of 0.2 ml RPMI 1640. Sham treated animals (n = 6) received 0.2 ml pure RPMI 1640. Diseased mice were randomized divided into 4 groups (n = 11) and treated once daily by s.c. application of PBS (vehicle), hBD2 (0.1 and 1 mg/kg, respectively) or 0.3 mg/kg Dexamethasone (Dexa., applied intraperitoneally). Treatments started 7 days post T cell transfer and continued daily for 86 days. Animals were weighed three times a week and monitored twice a week starting from day 42 for the clinical status, summarized as DAI. The DAI included body weight loss, stool consistency, and the presence of blood at the rectum. One animal in the vehicle and one in the Dexamethasone treated groups had to be sacrificed before the end of the study. At the end of the study, animals were sacrificed and the colon was removed and carefully cleaned for further analysis. First, the colon was weighed then a section from the middle was removed and fixed for pathologic survey. The rest of the colon (5 cm) was used to quantify the activity of myeloperoxidase in the tissue.
Myeloperoxidase activity was performed on 5 cm of colon previously frozen at −80°C. Colon was homogenized in 0.5% of HETAB dissolved in 10 mM of Phosphate-Citrate Buffer (pH 7.0) to enable the release of MPO enzyme from the neutrophil granules. Homogenated samples after three freeze-thaw cycles were spun at 3,000 × g at 4°C for 30 min. Pellets were resuspended in 0.5% HETAB in 10 mM Phosphate-Citrate Buffer and spun again at 3,000 × g at 4°C for 30 min. 500 ul of supernatant were delivered into a vial along with 500 ul of TMB in Phosphate-Citrate Buffer containing Perborate Sodium. Changes in absorbance at 620 and 450 nm were read by a spectrophotometer (IRIS). Peroxidase enzyme diluted in 0.5% HETAB in 10 mM Phosphate-Citrate Buffer and H2O was used as standard. Two-fold dilutions of standard were prepared at the highest concentration of 50 pg/ml. Reagents and samples were kept refrigerated. Substrate solution was prepared just before the assay. MPO activity expresses the amount of enzyme that is able to degrade […] of peroxide/min and it is expressed as U/g tissue weight.
Sections of the colon were taken from each animal and preserved in neutral buffered formaline for subsequent histological analysis. Sections were stained using haematoxylin and eosin for further scoring.

murine BM-DC's [2] = experiment: Cytokine production by murine BM-DC's; format: cell-based, mouse
Protocol: (§1) BM-DC's were generated using granulocyte-macrophage colony-stimulating factor (GM-CSF) and RPMI-1640 medium (Merck) supplemented with 10% fetal calf serum (FBS; Life Technologies), 2 mM glutamine (Thermo Fisher), 100 U/ml penicillin/streptomycin (Gibco), 50 μM 2-mercaptoethanol (Roth), 1 mM sodium pyruvate (Biochrome), and 1x non-essential amino acids (Biochrome) as previously described ([28]). Shortly, 2 × 10^6 bone marrow cells flushed from the tibias and femurs of C57BL/6 mice were seeded in dishes containing 200 U/ml GM-CSF. After 3 days extra medium containing GM-CSF was added to the cells and on day 6 half of the medium was replaced by fresh […] containing GM-CSF. After 7 or 8 days slightly attached cells were harvested. Female C57BL/6JolaHsd mice were purchased from Janvier (St. Berthevin Cedex, France). Animal experiments were performed in strict accordance with the German regulations of the Society for Laboratory Animal Science (GV-SOLAS) and the European Health Law of the Federation of Laboratory Animal Science Associations (FELASA). The protocol was approved by the Regierungspräsidium Tübingen (Anzeige 09.01.2014).
2 × 10^5 murine BM-DC's or human Mo-DC's were seeded in 96-well round bottom plates. First they were pretreated with 100 ng/ml pertussis toxin (Sigma-Aldrich) or 5 μM of the CCR2 inhibitor RS 504393 (Tocris) and subsequently stimulated with 100 ng/ml LPS or 0.2 […] and 10 μg/ml or 100 μg/ml hBD2. 24 h later supernatants were collected and TNF-α [Biolegend (BM-DC's); R&D (Mo-DC's)] was analyzed according to the manufacturer's instructions. IL-10, IL-12, and IL-1β (LEGENDplex Biolegend) was as well-analyzed according to the manufacturer's instructions.

mice with DSS colitis = conditions: rectally applied; cited from earlier work
[3] = tested on: human dendritic cells and keratinocytes; conditions: cited from earlier work
Source text: Herein we report that hBD2 can be used as a systemically administered anti-inflammatory biological. hBD2 is well-tolerated, both in vitro, and in vivo. […] After su ...

CD patients = conditions: clinical trial; cited from earlier work
Source text: Despite ongoing development of therapeutic approaches, new treatment strategies for the management of IBD are still urgently needed. Corticosteroids remain the standard therapeutic options for active CD and UC. However, their beneficial effects are associated with severe side effects such as osteoporosis, moon face, mood disturbances, glaucoma, and hypertension ([47]). In recent years, several new therapeutics targeting the molecular mechanisms of intestinal and systemic inflammation have been developed. Among these, anti-TNFα antibodies have been the most successful and most commonly used bio ...

murine BM-DC's [4] = experiment: Flow cytometry of BM-DCs (p-NF-κB, p-CREB, MHCII, CD86); format: cell-based, mouse; conditions: RS504393 prior to LPS + hBD2; n = 6
Protocol: as §1
2 × 10^5 murine BM-DC's were seeded in 96-well round bottom plates and treated as described above. Cells were removed from the plate using Accutase (Sigma-Aldrich) and stained for 20 min at room temperature with Zombie Aqua (Biolegend) to exclude dead cells and extracellular antibodies against CD11c-APC (N418) (Miltenyi), MHCII-FITC (M5/114.15.2) (Miltenyi) and CD86-BV421 (GL-1) (Biolegend). For p-CREB staining cells were fixed and permeabilized with Foxp3 Staining Buffer Set (eBioscience) and stained with primary antibody phosphor-CREB mAb (Ser133; clone 87G3) (Cell Signaling) for 30 min in the dark at room temperature followed by secondary goat anti-rabbit IgG-DyLight™649 (Jackson ImmunoResearch) for 15 min at 4°C. To detect intracellular p-NF-κB BM-DCs were fixed with 2% paraformaldehyde (VWR) in PBS, permeabilized with 90% freezing methanol (Applichem) and stained with the primary antibodies to phosphor-NF-κB p65 (93H1) (Cell Signaling) for 60 min in the dark at room temperature followed by goat anti-rabbit IgG-PE-Cy7 (Santa Cruz Biotechnology) for 15 min at 4°C. PBS with 0,5% bovine serum albumin (Biomol) was used for all incubations and washing steps. At least 50,000 cells were acquired using a Canto-II flow cytometer (BD […]) with DIVA software (BD Biosciences) and were further analyzed using FlowJo 10.5 software (Tree Star).

[5] = Dexamethasone 0.3 mg/kg i.p. daily, n = 10

C[C@@H]1C[C@H]2[C@@H]3CCC4=CC(=O)C=C[C@]4(C)[C@@]3(F)[C@@H](O)C[C@]2(C)[C@@]1(O)C(=O)CO [dexamethasone, Dexamethasone, reference compound]
Histological analysis of colon ([1]; Dexamethasone 0.3 mg/kg i.p. daily): Less signs of inflammation | Efficacy compared with hBD2 ([1]; Dexamethasone 0.3 mg/kg i.p. daily vs hBD2 s.c.): superior to hBD2 in the T cell transfer model | Colon weight [1, 5]: improved DAI, stool score and colon weight significantly | DAI [1, 5]: improved DAI, stool score and colon weight significantly | Stool score [1, 5]: improved DAI, stool score and colon weight significantly

pertussis toxin [reference compound]
Effect of pre-treatment on hBD2 modulation of TNF-α, IL-1β, IL-10, IL-12p70 secretion (murine BM-DC's [2]; 100 ng/ml pertussis toxin before LPS and hBD2): prevented the observed immunomodulatory capacity of hBD2

porcine β-defensin 2 [pBD2]
Mucosal injury and epithelial barrier in DSS colitis (mice with DSS colitis): protective against mucosal injury and disruption of the epithelial barrier

hBD3: defensin named only as hBD3, cited for cytotoxicity in contrast to hBD2 (GIINTLQKYYCRVRGGRCAVLSCLPKEEQIGKCSTRGRKCCRRKK; ends and bridges not checked; cysteine pairing not given here; UniProt P81534 23-67, looked up)
Cytotoxic effects [3]: demonstrated cytotoxic effects

Secukinumab
Disease course in CD patients (CD patients): worsened the disease

Cc1ccc2c(c1)C1(CCN(CCc3nc(-c4ccccc4)oc3C)CC1)OC(=O)N2 [RS504393, RS 504393, reference compound]
Effect of pre-treatment on hBD2 modulation of cytokine secretion (murine BM-DC's [2]; 5 μM RS504393 before LPS and hBD2): prevented the anti-inflammatory effect of hBD2 | Effect of pre-treatment on hBD2-mediated change of CREB phosphorylation (murine BM-DC's [4]): prevented the increase in CREB phosphorylation | Effect of pre-treatment on hBD2-mediated change of MHCII and CD86 expression (murine BM-DC's [4]): prevented this lower expression | Effect of pre-treatment on hBD2-mediated change of NF-κB phosphorylation (murine BM-DC's [4]): prevented the hBD2-mediated reductions in NF-κB activation
